This note sets out measurements from ChEMBL document CHEMBL1151948, “Lactones from Angiopteris caudatiformis” (J Nat Prod, 2009).

pIC50: −log10 of the molar value.

For orientation: pIC50 means the IC50 on a negative log10 scale, so that one unit is a factor of ten.

The subject of this assay is HeLa. Nature of the assay: Cytotoxicity against human HeLa cells after 48 hrs by MTT assay. It counts as functional, cell-based. In general terms: Tetrazolium dyes change colour on reduction, which living cells bring about.

As for `C[C@H](O)[C@H]1OC(=O)C[C@H]1O[C@H]1C=CC(=O)O[C@H]1C` [ANGIOPTERLACTONE A], the pIC50 is 4.16.
